In patent publication US20230174561A1, “IONIC COMPOUND AND COMPOSITION THEREOF FOR HYDROPHOBIC PROTEIN EXTRACTION; AND ANTI-NONSPECIFIC PROTEIN ADSORPTION ZWITTERIONIC COMPOUND AND ELEMENT WITH ANTI-NONSPECIFIC PROTEIN ADSORPTION LAYER COMPRISING THE SAME” (priority 2021, published 2023):
Like-named read-outs stand apart in the source and are kept apart here.

What was measured:
gliadin = assay: Solubility of gliadin in ionic solutions (excess gliadin, Wheat/Gluten (Gliadin) ELISA Kit); assay type: physicochemical
Procedure: Gliadin is a hydrophobic protein present in gluten of wheat. Unless specifically stated, gliadin (G3375, Sigma-Aldrich; CAS No. 9007-90-3) or was used in the following tests.
First of all, ionic solutions of [DMePIm][OMs] with a concentration of 0.1 wt %, 1 wt %, 2 wt %, 5 wt % and 10 wt % in water were prepared. 3 grams (g) of gliadin (excess amount) was added into 10 mL of each [DMePIm][OMs] ionic solution, mixed homogenously and stood still for 5 min to give sample solutions for Test Example 1. All sample solutions were centrifuged at 8500 rpm for 3 min and filtered with a filter with 0.22 μm pore size. Water (0 wt %) was used as the control group. After that, Wheat/Gluten (Gliadin) ELISA Kit (Crystal chem, AOAC No. 011804) was used to determine the concentration and solubility of gliadin. Since the examination of the Wheat/Gluten (Gliadin) ELISA Kit is about 100 ppm, the gliadin concentration was determined by diluted sample solutions with at least 50-fold dilution by the corresponding ionic solution, in order to calculate the gliadin concentration of the sample solutions.
Similar with Test Example 1, except that 3 g of gliadin was added into 10 mL of 1 wt % ionic solution of [DMeIm][OMs](value “a” of Formula I is 0), [TMeIm][OMs] (a=1), [DMePrIm][OMs] (a=3), [DMePIm][OMs] (a=5), [DMeHpIm][OMs] (a=7), [DMeNnIm][OMs] (a=9) or [DMeDdIm][OMs] (a=12). […] (a=5), [DMeHpIm][OMs] (a=7), [DMeNnIm][OMs] ([…]) and [DMeDdIm][OMs] (a=12) ionic solutions, in which the corresponding groups attached on 3-position of the 1,2-dimethyl imidazolium had different carbon numbers (value “a” of Formula I) of 5, 7, 9 and 12, respectively. The [DMeDdIm][OMs]
Similar with Test Example 1, except that 3 g of gliadin was respectively added into 10 mL of 1 wt % ionic solutions of [DMePIm][Cl], [DMePIm][F], [DMePIm][OMs], [DMePIm][NO3], [DMePIm][H2PO4] and [DMePIm][HSO4].

[1] = system: Mouse N2a neuroblastoma cells (N2a cells); assay: Biocompatibility, XTT cell survival test; assay type: cell-based; conditions: 0.1, 1, 2, 5 and 10 wt % in medium, 6 h, FIG. 7
Procedure: Mouse N2a neuroblastoma cells (N2a cells) were cultured and maintained in DMEM High Glucose with L-glutamine and sodium pyruvate (DMEM-HPA-P10, Capricorn Scientific) containing 10% fetal bovine serum (FBS). The N2a cells were seeded in a 6-well plate with a density of 2×10^5 cells/well overnight. Then the medium was replaced with a testing DMEM High Glucose medium containing 0.1 wt %, 1 wt %, 2 wt %, 5 wt % and 10 wt % of [DMePIm][OMs] and the cells were incubated in an incubator (37° C., 5% CO2 humidified atmosphere) for 6 h. The testing medium was removed, the cells were washed, and new DMEM High Glucose containing 10% FBS was added and incubated for another 12 h. After that, the cells were subjected to XTT test (X12223, purchased from Thermo Fisher) for determining cell survival rate.

CCCCCCC[n+]1ccn(C)c1C.CS(=O)(=O)[O-] [[DMeHpIm][OMs], [1,2-dimethyl, 3-heptyl imidazolium][methanesulfonyl]]
solubility of gliadin in ionic solutions with different cations (gliadin): higher solubility

CCCCCCCCCCCC[n+]1ccn(C)c1C.CS(=O)(=O)[O-] [[DMeDdIm][OMs], [1,2-dimethyl, 3-dodecyl imidazolium][methanesulfonyl]]
viscosity of ionic solution (gliadin; 1 wt % ionic solution): higher viscosity

CCCCCCCCC[n+]1ccn(C)c1C.CS(=O)(=O)[O-] [[DMeNnIm][OMs], [1,2-dimethyl, 3-nonyl imidazolium][methanesulfonyl]]
solubility of gliadin in ionic solutions with different cations (gliadin): higher solubility

CCCCC[n+]1ccn(C)c1C [[DMePIm][OMs], [1,2-dimethyl, 3-pentyl imidazolium][methanesulfonyl]]
concentration of gliadin over time (gliadin; 1 wt % ionic solution, 1-30 min, FIG. 2): reached its maximum solubility shortly
solubility of gliadin in ionic solutions with different cations (gliadin; 1 wt % ionic solution, FIG. 3): higher solubility
solubility of gliadin in ionic solutions with different anions (gliadin; 1 wt % ionic solution, FIG. 4): greatest solubility
survival rates of cells [1]: high
